These results are taken from patent US6649797B2, “Compounds and methods of use to treat infectious diseases” (The Picower Institute for Medical Research, priority 1996, dated 2003).

The subject of assay [1] is BSA with conjugated NLS peptides that mimic the NLS of SV40 large T antigen. Kind of assay: Nuclear import of BSA with conjugated NLS peptides of SV40 large T antigen.
The next assay has as its target T1, recombinant MA (Human immunodeficiency virus type 1 group M subtype B, UniProt P04591).
T1 construct: 0.28 nanomoles of recombinant MA or RT [p66/p51 ] dimer
Put plainly: Binding of [14C]-CNI-H0294 to recombinant MA in solution (immunoprecipitation). On the set-up: species or system HIV-1. As for the experimental part: Twenty nmol of [^14C]-CNI-HO294 were mixed with 0.28 nmol of recombinant MA or RT (a p51/p66 heterodimer) in 40 μl of binding buffer. Samples were incubated for 2 h at 37° C. in the presence or absence of 200 nmol of unlabeled CNI-H0294. MA and RT proteins were immunoprecipitated using protein G agarose and sheep polyclonal anti-MA (αMA) or rabbit anti-RT (αRT) sera, respectively. Pre-immune sera (PI) was used as control. Bound material was eluted from protein G using 0.1 M glycine buffer [pH 2.8] and the radioactivity in the eluate was quantified in a scintillation counter.
0.28 nanomoles of recombinant MA or RT [p66/p51 ] dimer were mixed with 20 nmol of [^14C] CNI-HO294 (specific activity 5×10^4 cpm/nmol) and incubated 2 hr at room temperature in 40 μl of binding buffer (PBS supplemented with 1% BSA, 0.1% Tween 20, 1 μg/ml leupeptin, 1 μg/ml aprotinin, 1 mM PMSF). Sheep anti-MA or rabbit anti-RT sera (both obtained from NIH AIDS Research and Reference Reagent Program) or pre-immune control sera were then added (at 1:100 dilution) and incubation continued for another 1 hr at room temperature. Immune complexes were precipitated with protein G-agarose, washed, and then eluted with 0.1 M glycine, pH 2.8. Radioactivity of the eluate was measured in a scintillation counter.

A further assay deals with HIV-1ADA. Kind of assay: HIV-1ADA production in mitogen-stimulated peripheral blood leukocytes (FIG. 3). The class given is cell-based. The protocol: FIG. 3. The effect of various concentrations of Compound No. 2 on RT activity in the supernatant of HIV-1-infected mitogen-stimulated peripheral blood leukocytes at infected at 10 and 1.0 ng p24/[…], FIGS. 3A and 3B, respectively.
PBMCs were purified by Ficoll-Hypaque centrifugation and activated by 10 μg/ml PHA-P (Sigma) and 20 U/ml recombinant human IL-2 (rhIL-2) in RPMI 1640 supplemented with 10% FBS (HyClone). After 24 h incubation, cells were washed and inoculated with HIV-1ADA in RPMI 1640 supplemented with 10% FBS. After a 2 h adsorption, free virus was washed away and cells were cultured in RPMI 1640 supplemented with 10% FBS and 20 U/ml rhIL-2.
(§1) For the reverse transcriptase (RT) assay, 10 μl of culture supernatant was added to 40 μl of reaction mixture (final composition was 50 mM Tris-HCl, pH 7.8; 20 MM KCl; 5 MM MgCl2; 1 mM DTT; 0.1% Triton X-100; 0.2 OD/ml polyA; 0.2 OD/ml oligo(dT)12-18; and 40 μCi/ml ^3H-dTTP (76 Ci/mmol, DuPont) and incubated 2 hr at 37° C. 5 μl of the reaction mixture was then spotted onto the DE 81 (Whatman) paper. Paper was air dried and washed 5 times with 5% Na2HPO4, followed by rinsing with distilled water. After air drying, paper was put on a Flexi Filter plate (Packard), covered with scintillation fluid and counted in a Top Count Microplate Counter (Packard). Results are expressed as counts per minute in 1 ml of supernatant (cpm/ml).

The next assay concerns HIV-1. Put plainly: AZT and Compound No. 2 in combination, HIV-1 infected monocyte cultures, RT activity. In kind it is cell-based. To be noted: for reverse transcriptase activity in supernatant: 100 nM Compound No. 2, AZT 0. The protocol:
Primary human monocytes were obtained from peripheral blood by Ficoll-Hypaque centrifugation and adherence to plastic as described previously. Gartner S. P., et al., 1986, Science 233:215. Briefly, after Ficoll-Hypaque (Pharmacia) separation, PBMCs were washed 4 times with DMEM (the last wash was done at 800 rpm to remove platelets) and resuspended in monocyte culture medium [DMEM supplemented with 1 mM glutamine, 10% heat-inactivated human serum, 1% penicillin+streptomycin mixture (Sigma)] at a density of 6×10^6 cells/ml. Cells were seeded in 24-well plates (1 ml per well) and incubated for 2 h at 37° C, 5% CO2. Following incubation, cells were washed 3 times with DMEM to remove non-adherent cells and incubation was continued in monocyte culture medium supplemented with 250 U/ml human M-CSF (Sigma). Cells were allowed to mature for 7 days prior to infection with the monocyte-tropic strain, HIV-1ADA. Nuovo, G. J., et al., 1992, Diagn. Mol. Pathol. 1:98. Two hours after infection, cells were washed with medium and cultured in RPMI supplemented with 10% human serum. In experiments where PCR analysis was performed, virus was pretreated with RNAse-free DNAse (Boehinger-Mannheim) for 2 h at room temperature and then filtered though a 0.2 μm pore nitrocellulose filter prior to infection.
as §1
In view of these premises, the effects on HIV-1 replication in human monocyte cultures of the various concentrations of AZT, alone or in combination with 100 nM Compound No. 2, were tested using the protocols of Sections 6.2.1 and 6.2.2. Drugs were added to the monocyte cultures together with HIV-1 at about 10^5 TCID/ml. The concentration of drugs was maintained on refeeding. HIV-1 replication was assessed by assay of the supernatant for reverse transcriptase activity. The results are expressed as mean ± std. dev. (cpm×10^−3) in Table V.

For the compound `CC(=O)c1cc(Nc2cc(C)[n+](C)c(N)n2)cc(C(C)=O)c1` [CNI-0294, 2-Amino-4-(3,5-diacetylphenyl)amino-1,6-dimethylpyrimidinium chloride], the “block of nuclear import of BSA with conjugated NLS peptides” value in assay [1] is “did not block”. Moreover, the “binding to recombinant MA” value on recombinant MA is listed as “No binding was observed”.
On to `CC(=O)c1cc(Nc2cc(C)[n+](C)c(N)n2)cc(C(C)=O)c1.[I-]` [Compound No. 2, 2-amino-4-(3,5-diacetylphenyl)amino-1,6-dimethylpyrimidinium iodide], for which the “reduction in viral output” value with HIV-1ADA (1 and 10 μM, lower MOI, 1 ng p24/10^6 cells) is roughly 2 fold. In the assay with HIV-1ADA (infected at the multiplicity of infection used to infect monocytes), the “anti-viral effect in cultures of replicating cells” value is given as “No anti-viral effect was detected”. In addition, the “effect on viral production” value in the assay with HIV-1ADA (up to 10 μM, higher MOI, 10 ng p24/10^6 cells) is given as “only a marginal effect”. Besides, the “reverse transcriptase activity in supernatant” value in the assay on HIV-1 (day-7) is 0.37 ± 0.07 cpm×10^−3; in the assay on HIV-1 (day-11), 0.72 ± 0.30 cpm×10^−3. The “reduction in RT activity” value with HIV-1 (day-11, 100 nM Compound No. 2 alone) is reported as roughly 60%.
